Active and inactive are the calls of the source. The calls are words filed in the database; no cut-off is given here.
How the values were obtained:
[1] = Cytotoxicity against HEK293 cells assessed as inhibition of cell growth incubated for 24 hrs by MTT assay; type: toxicity, cell-based; conditions: human
[2] = biological target: Glucagon receptor (Homo sapiens) (UniProt P47871); test: Antagonist activity at GCGR (unknown origin) expressed in HEK293 cells assessed as inhibition of GCG binding by measuring increase in fluorescence intensity at 10 uM incubated for 30 to 40 mins by FLUO-4 AM fluorescence based flow cytometric analysis; type: functional, cell-based; conditions: filed as antagonist, time 30-40 min
Sequence of Glucagon receptor (Homo sapiens) (P47871 whole entry): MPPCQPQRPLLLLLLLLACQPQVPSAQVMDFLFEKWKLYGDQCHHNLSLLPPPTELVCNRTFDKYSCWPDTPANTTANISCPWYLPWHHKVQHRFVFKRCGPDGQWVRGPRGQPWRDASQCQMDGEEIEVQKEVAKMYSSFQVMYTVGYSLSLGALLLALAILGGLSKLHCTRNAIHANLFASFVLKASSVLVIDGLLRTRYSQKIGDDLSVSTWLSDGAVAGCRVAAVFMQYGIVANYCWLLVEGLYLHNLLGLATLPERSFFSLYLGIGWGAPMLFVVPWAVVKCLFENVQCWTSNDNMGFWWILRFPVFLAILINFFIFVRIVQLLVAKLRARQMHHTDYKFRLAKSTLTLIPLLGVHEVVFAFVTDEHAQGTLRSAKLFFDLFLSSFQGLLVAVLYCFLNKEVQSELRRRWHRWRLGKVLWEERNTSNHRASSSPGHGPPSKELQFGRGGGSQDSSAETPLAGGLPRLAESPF

[3] = biological target: Glucagon receptor (Homo sapiens) (UniProt P47871); test: Antagonist activity at […] (unknown origin) expressed in HEK293 cells assessed as inhibition of GCG binding by measuring increase in fluorescence intensity at 0.1 mM incubated for 30 to 40 mins by FLUO-4 AM based inverted fluorescence microscopic imaging analysis; type: functional, cell-based; conditions: filed as antagonist, time 30-40 min

| Molecule | IC50 at 24 h [1] [µM] | Activity [2] | Activity [3] |
| --- | --- | --- | --- |
| COc1cc2c(cc1OC)[C@@H](Cc1ccc(Oc3cc(C[C@H]4c5cc(OC)c(OC)cc5CCN4C)ccc3O)cc1)N(C)CC2 | 10.6 | Active | – |
| H-SQGTFTSEYSKYLDSRRAQDFVQWL-NH2 | – | – | Active |

Reference: ChEMBL document CHEMBL5120925, “Antagonistic Effect and In Vitro Activity of Dauricine on Glucagon Receptor” (J Nat Prod, 2022)
